Measured values published in patent publication US20230134760A1, “CAR AND NRF2 DUAL ACTIVATOR AGENTS FOR CYCLOPHOSPHAMIDE-BASED AND DOXORUBICIN-BASED TREATMENTS OF CANCER” (priority 2020, published 2023).

What was measured:
H9c2 cells [1] = assay: Multi-organ co-culture (BT549/HPH/H9c2), H9c2 viability; format: cell-based, rat; conditions: DL7076 10 μM
Description: Additionally, HPH were cultured in collagen-coated 6-well plates and pre-treated as described in the previous co-culture system. BT549 and H9c2 cells were plated on similar modified coverslips 0.8×10^5 cells and allowed to attach for 24 hours during hepatocyte pre-treatment. […] Following pre-treatment, BT549 coverslips were inserted adjacent to H9c2 coverslips over the sandwich cultured HPH as depicted in FIG. 43a. […] Both BT549 and H9c2 cells were harvested at indicated time points and assess for viability, apoptosis, and DNA damage as detailed further. H9c2 cells were seeded 0.8×10^5 in 24-well plates. […] A Cell Counting Kit-8 (Enzo) assay was carried out. Cell viability was described as a percent of vehicle control (0.1% DMSO).

H9c2 cells [2] = assay: Oxidative stress imaging (DFDA) in H9c2 cells; format: cell-based, rat; conditions: H9c2, DL7076 5 μM, 2-hour pretreatment and 6-hour cotreatment with DOX
Description: H9c2 rat cardiomyocytes seeded at 0.8×10^5 in 24-well plates. […] Cells were washed 3× with PBS. Subsequently, 0.5 mL of WEM containing 20 μM 2'-7'-dichlorofluorescein diacetate (DFDA) was added to each well. The cells were incubated at 37° C. and 5% CO2 for 30 min. The oxidation of DFDA to the fluorescent dichlorofluorescein was viewed using fluorescence microscopy (Nikon Eclipse Ti) with a FITC filter at […] and quantified using Brightspot detection for fluorescent detection of triplicate images and normalized to the vehicle control (0.1% DMSO). Cells on coverslips from co-culture experiments were fixed using 4% paraformaldehyde and permealized using Triton-X 100. A primary antibody for mouse anti-phospho-H2AX ([…]) was incubated overnight. Goat anti-mouse IgG Fluor Alexa 488 (1:200) was incubated for 2 hrs. Phosphorylation was calculated through fluorescence intensity all normalized to the vehicle control.

Nrf2 = Nrf2 luciferase reporter assay in HepG2 cells (ARE); format: cell-based; conditions: HepG2, screening, FIG. 37b
Description: HepG2 cells were cultured in 24-well plates (1×10^5 cells/well) and transfected with either a hCAR1+A expression vector (30 ng/well), a CYP2B6-2.2k reporter (60 ng/well) reporter, and pRL-TK (10 ng/well) or a ARE expression vector using X-tremeGENE 9 DNA Transfection Reagent (Sigma-Aldrich). After an overnight transfection, cells were treated with a vehicle control (0.1% DMSO), RIF (10 μM), DL7076 (1 μM, 5 μM, and 10 μM) for 24 hours. Cell lysates were assayed for luciferase activity and normalized against the activity of the Renilla luciferase using a Dual-Luciferase Kit (Promega).

HPH/BT549 coculture = assay: LC-MS/MS determination of 4-OH-CPA formation in HPH/BT549 coculture medium; format: cell-based, human; conditions: DL7076 10 μM
Description: During the pre-treatment time, BT549 cells were seeded at 0.8×10^5 on collagen-coated coverslips modified to have their corners bent (FIG. 40a). […] 200 μL of cell culture medium was removed from each treatment group was immediately mixed with 20 μL of semicarbazide (SCZ; 2M) to stabilize 4-OH-CPA to its derivative 4-OH-CPA-SCZ. Once removed, samples were vortexed and left at room temperature for 10 minutes. 2 μM HMP was added as an internal standard and 200 μL acetonitrile was used to precipitate protein. Mass transitions were monitored at m/z: 261-140 for CPA, m/z: 334-221 for 4-OH-CPA-SCZ, and m/z: 180-135 for HMP under the positive multiple reaction monitoring mode.

HO-1 = HO-1 expression in MDA-MB-231 cells; format: cell-based; conditions: MDA-MB-231, 10 μM, 24 hours
Description: Immortalized triple negative breast cancer cell lines MDA-MB-231 and BT549 were obtained from ATCC (Rockville, Md.). Additionally, the h9c2 cell line was purchased from ATCC (Rockville, Md.). […] Human iPSC-derived cardiomyocytes were maintained in Mtesr plus and supplemented according to protocol. These cells were treated for 2 hrs or an overnight as indicated. Following a 2 hr pretreatment, cells were co-treated with DOX at indicated concentrations for 6 or 22 hours. Following the overnight treatments, RNA or protein was isolated. HPH were seeded in collagen-coated 24 well plates and pretreated for 24 hrs. BT549 were seeded on inverted coverslips. After a 24 hr pretreatment, hepatocytes were co-administered as indicated and coverslips were inserted. The cell lines were used for less than 60 passages. After 24 h treatment, HPH, BT549, MDA-MB-231, and H9c2 cells were washed and a phenol-chloroform extraction was used to isolate total RNA with the TRIzol reagent (ThermoFisher, Rockford, Ill.). Reverse transcription was performed on extracted RNA (1 μg) to produce cDNA using the High Capacity cDNA Archive kit according to manufacturer's instructions (Applied Biosystems, Foster, Calif.). […] Quantification of expression changes was done by the 2^ΔΔCt method, normalizing to GAPDH as the housekeeping gene and determining the fold change compared to control values (n=3). […]

O=C(NCCN=C=S)c1c(-c2ccc3ccccc3c2)nc2sccn12 [DL7076, N-(2-Isothiocyanatoethyl)-6-(naphthalen-2-yl)imidazo[2,1-b]thiazole-5-carboxamide]
H9c2 viability during CPA/DOX treatment (H9c2 cells [1]): h9c2 cardiomyocyte viability can be protected during CPA/DOX treatment | ROS (fluorescence intensity) with cotreatment (H9c2 cells [2]): significantly reduced ROS | Nrf2 luciferase activity (potency and efficacy) (Nrf2): higher potency and efficacy | rate and extent of CPA biotransformation to 4-OH-CPA (HPH/BT549 coculture; coculture medium): increased rate and extent of CPA biotransformed | 4-OH-CPA formation (HPH/BT549 coculture; fixed CPA 500 μM, 2 to 24 hours): enhanced 4-OH-CPA formation in the coculture medium at all time points | HO-1 induction (HO-1): 1.4 fold
